# How the values were obtained:
# [1] = tested on: cortical mixed neuronal-glial cultures; test: DCF assay of toxin-induced free radical formation in cortical mixed neuronal-glial cultures; assay type: cell-based, rat
# Experimental: (§1) Mixed neuron-glia cell cultures were prepared from the spinal, mesencephalic and cortical regions of an embryonic Sprague-Dawley rat fetus (gestation day 15), respectively, as described in Tsai et al. (Ann. N.Y. Acad. Sci. 1042 (2005):338-348). Briefly, cells were dissociated with a mixture of papain/protease/deoxyribonuclease I (0.1%:0.1%:0.03%) and plated onto poly-lysine coated dishes at a density of 1 to 2×10^5 cells/cm^2 with Dulbecco's modified Eagle's medium (DMEM) supplemented with 10% fetal bovine serum (FBS). On the second day after cell seeding, the cultures were maintained in DMEM+10% FBS or in DMEM supplemented with N2 (Invitrogen, Carlsbad, Calif.) as serum-free medium.
# (§2) On the 2nd or 3rd day after cell seeding, the cultures were firstly loaded with 50 μM DCFH-DA in serum-free medium (DMEM+N2) for 1 hr. The medium was then replaced with growth medium containing H2O2 (1 mM) or t-BOOH (0.75 mM) and the cultures were maintained in the growth medium for 2 hrs. HD2 (20 to 200 μg/ml) and baicalein (2 or 10 μM) were then added to the cultures within 10 minutes after the toxin treatment started, respectively. The resulted fluorescent DCF levels were measured by a fluorescence plate reader (ex/em: 485 nm/538 nm). FIGS. 5 and 6 show the results of the measurement.
# [2] = tested on: spinal cord mixed neuronal-glial cultures; test: DCF assay of toxin-induced free radical formation in spinal cord mixed neuronal-glial cultures; assay type: cell-based, rat
# Experimental: as §1, §2
# [3] = H2O2 1 mM, baicalein 2 and 10 μM
# [4] = t-BOOH 0.75 mM, baicalein 2 or 10 μM, P<0.01
compound,measurement,setting,value
O=c1cc(-c2ccccc2)oc2cc(O)c(O)c(O)c12 [baicalein],free radical level induced by H2O2,[1]; [3],significantly reduced
same,free radical level induced by t-BOOH,[1]; [4],significantly inhibited
same,free radical level induced by H2O2,[2]; [3],significantly reduced
same,free radical level induced by t-BOOH,[2]; [4],significantly inhibited

# Reference: patent publication US20110171329A1, “METHOD FOR TREATMENT OF NEURAL INJURIES” (priority 2009, published 2011)
